Reference: PubChem BioAssay AID2286 (Southern Research Specialized Biocontainment Screening …, 2010)
Activity calls are given as the source filed them.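 The calls were made as follows: active = minimum cell viability of 80% or lower across the dose range, counted as toxic; inactive = minimum cell viability above 80%.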

Legend:
[1] = viability loss in fusion assay cells – cell-based, MAGI and MAGI-HeLa co-culture, cytotoxicity control for HIV-1 fusion inhibitor project, dose response (AID 2286); conditions: MAGI-CCR5 cells viability, CellTiter-Glo ATP luminescence; for minimum viability: measured here: MAGI minimum viability across doses;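 as to all read-outs here: cells exposed to compound for at least 64 h before ATP readout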;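 as to minimum viability: 100% = median of DMSO vehicle wells with no ATP signal meaning 0%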;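 as to viability: 100% = median of DMSO vehicle wells with no ATP signal meaning 0%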
[2] = test system: MAGI-CCR5 cells viability, CellTiter-Glo ATP luminescence; experiment: as above
[3] = MAGI-HeLa co-culture viability, at 50 µM, stronger effect = lower value
[4] = measured here: MAGI + HeLa-R5-16 co-culture viability

SMILES	viability [1, 3]	minimum viability ([1]; at 50 µM, stronger effect = lower value)	CC50 [2]	CC50 [2, 4]	viability ([1]; at 50 µM (top of the series))	minimum viability ([1]; at 25 µM, stronger effect = lower value)	minimum viability ([1]; at 0.2 µM, stronger effect = lower value)	minimum viability ([1]; at 12.5 µM, stronger effect = lower value)	minimum viability ([1]; at 3.13 µM, stronger effect = lower value)	minimum viability ([1]; at 0.39 µM, stronger effect = lower value)
COc1ccc(-c2csc(NC(=O)c3ccccc3NS(=O)(=O)c3ccc(C)cc3)n2)cc1	24.4%	20%	4.93 µM	10.9 µM						
O=C(NN1C(=O)/C(=C/c2ccc(O)cc2)SC1=S)c1ccccc1O	36.5%	27.6%	26.7 µM	41.3 µM						
CCOC(=O)c1sc2nc3c(SCCC(=O)O)cc(C(=O)c4cc(OC)ccc4O)cn3c(=O)c2c1C	65.6%	68.7%		> 50 µM						
O=C(O)c1ccc(Nc2nc(-c3cc4ccccc4oc3=O)cs2)cc1O	77.6%	85.6%		> 50 µM	85.6% (inactive)					
Nc1c(S(=O)(=O)O)cc(NC(=O)c2ccccc2)c2c1C(=O)c1ccccc1C2=O	50.2%			49.2 µM	103% (inactive)	89.2%				
CC1(c2ccccc2)CC(C)(C)N2C(=O)/C(=C3\SC(=S)NC3=O)c3cccc1c32 (stereo not drawn)	40.9%	22.5%	14.1 µM	37 µM						
COc1cc([N+](=O)[O-])cc(/C=C2/SC(=S)N(Cc3ccccc3)C2=O)c1O	16.4%		8.44 µM	29.2 µM		5.81%				
O=C(O)c1cc(-c2ccc(-c3c(-c4ccc5c(c4)OCO5)noc3-c3ccsc3)cc2)nc2ccccc12	64.8%	40.9%	32.5 µM	> 50 µM						
O=C(O)c1cccc(NC(=S)N/N=C/c2ccccc2OCc2cccc(Br)c2)c1	28.4%	9.27%	22.3 µM	23.9 µM						
CCS(=O)(=O)C1=NN2C(=N)/C(=C\c3ccc(OCCOc4cccc(OC)c4)c(OC)c3)C(=O)N=C2S1	50%	83.7%		40.1 µM	83.7% (inactive)					
CC(/C=C1\SC(=S)N(CCCC(=O)Nc2ccc(C(=O)O)cc2)C1=O)=C\c1ccccc1	69.6%	60.9%		> 50 µM						
Oc1c(Cl)cc(Cl)c(Cl)c1Cc1c(O)c(Cl)cc(Cl)c1Cl	23%	15.7%	1.96 µM	7.05 µM						
N#C/C(=C\c1ccc(O)c([N+](=O)[O-])c1)c1nc2ccccc2s1	41.9%	21.9%	11.7 µM	43.8 µM						
O=[N+]([O-])c1cccc(S(=O)(=O)Nc2nc3ccccc3nc2Nc2cccc(S(=O)(=O)N3CCCCC3)c2)c1	20.4%	19.9%	7.22 µM	14.1 µM						
CN(C)S(=O)(=O)c1cccc(-c2nn(-c3ccccc3)cc2/C=C2\SC(=S)N(CC(=O)O)C2=O)c1	74.7%	68.6%		> 50 µM						
O=C(O)C1Nc2ccc(Br)cc2C2C=CCC12 (stereo not drawn)	74.1%			> 50 µM	98% (inactive)		90.6%			
O=C(O)CCCCCN1C(=O)/C(=C\c2cn(-c3ccccc3)nc2-c2cccs2)SC1=S	54.7%	47.2%	44.3 µM	> 50 µM						
O=C1/C(=C\c2ccc(O)c(O)c2)C(c2ccccc2)=NN1c1ccccc1	34.7%	28.1%	38.4 µM	48.7 µM						
CCOc1cc(/C=N/N=C2/NC(=O)C(CC(=O)O)S2)ccc1OCc1ccc(Cl)cc1 (stereo not drawn)	75.2%			> 50 µM	101% (inactive)			85.4%		
O=C(N/N=C/c1cc(Cl)cc([N+](=O)[O-])c1O)NC12CC3CC(CC(C3)C1)C2	55.7%	49.2%	48.7 µM	> 50 µM						
COCCN1C(=O)/C(=C/c2ccc(OCc3ccc(C(=O)O)cc3)c(OC)c2)SC1=Nc1ccccc1	44.3%	41.3%	33.8 µM	35.4 µM						
COc1ccc(C(=O)/C=C/c2cccc(OCc3ccccc3)c2)cc1CSCC(=O)O	13.8%	5.22%	28.5 µM	46.4 µM						
COc1cc(/C=C2/SC(=S)NC2=O)ccc1OS(=O)(=O)c1ccc(C)cc1	28.8%	21.6%	12 µM	28.9 µM						
Brc1ccc(N/N=C(/N=Nc2nn[nH]n2)c2ccccc2)cc1	20.1%	44.6%	32.8 µM	23.5 µM						
Cc1c2c(=O)n(-c3nc4ccccc4s3)nc-2cc(O)n1Cc1ccccc1	49.2%	42.5%	33.2 µM	> 50 µM						
O=C(O)COc1ccc(/C=C/C(=O)c2ccc(C3CCCCC3)cc2)cc1	76.3%	48.7%	49.7 µM	> 50 µM						

SMILES	viability [1, 3]	minimum viability ([1]; at 50 µM, stronger effect = lower value)	CC50 [2]	CC50 [2, 4]	viability ([1]; at 50 µM (top of the series))	minimum viability ([1]; at 25 µM, stronger effect = lower value)	minimum viability ([1]; at 0.2 µM, stronger effect = lower value)	minimum viability ([1]; at 12.5 µM, stronger effect = lower value)	minimum viability ([1]; at 3.13 µM, stronger effect = lower value)	minimum viability ([1]; at 0.39 µM, stronger effect = lower value)
CN(C)S(=O)(=O)c1cccc(-c2nn(-c3ccccc3)cc2/C=C2\SC(=S)NC2=O)c1	35.7%	27.8%	10 µM	25.5 µM						
Cc1ccc(-c2nc(SCC(=O)Nc3ccccc3OC(F)F)c3c(C)c(C(=O)O)sc3n2)cc1	58%	36.8%	36.4 µM	> 50 µM						
O=C(O)c1ccc(N2C(=O)/C(=C/c3ccc(-c4ccc([N+](=O)[O-])cc4)o3)C=C2c2ccccc2)cc1	65.7%		35.4 µM	> 50 µM		46.8%				
COc1cc(/C=C2\SC(=S)NC2=O)ccc1OS(=O)(=O)c1ccccc1	35.9%	24.8%	17.9 µM	40.7 µM						
CCOc1ccc(CCNC(=O)c2ccc3c(=O)[nH]c4c(C(=O)NC(C)C)sc(=S)n4c3c2)cc1	93.9%	45.6%	37.2 µM							
O=C(O)CCn1cc(/C=C/C(=O)c2ccc(Cl)cc2)c(-c2cccc(Br)c2)n1	87%	40.5%	43.1 µM							
COc1ccc(/C=C2/SC(=S)N(CC(=O)O)C2=O)cc1OCc1ccc(Cl)cc1	67%			> 50 µM	104% (inactive)				85.8%	
CC(C)(C)c1ccc(S(=O)(=O)/N=C2\C=C(NS(=O)(=O)c3ccccc3)C(=O)c3ccccc32)cc1	51.2%	51.5%		> 50 µM						
CCc1ccc(S(=O)(=O)/N=C2\C=C(NS(=O)(=O)c3ccccc3)C(=O)c3ccccc32)cc1	80%	74.4%		> 50 µM						
CCOc1cc(/C=C2\C(=N)N3N=C(S(C)(=O)=O)SC3=NC2=O)ccc1OCCOc1cccc(OC)c1	47.3%	78%		43.2 µM						
CCOc1cc(/C=C2/C(=N)N3C(=NC2=O)SN=C3S(C)(=O)=O)ccc1OS(=O)(=O)c1ccccc1	68.9%	81.5%		> 50 µM	81.5% (inactive)					
CCC(C)(C)C1CCc2c(sc(NC(=O)c3ccccc3C(=O)O)c2C#N)C1 (stereo not drawn)	50.7%	55.5%		> 50 µM						
CCCCCCCCCCCCCCCCn1cc[n+](CC(C)=O)c1	3.56%	2.77%	1.36 µM	2.09 µM						
COc1ccc(C(=O)/C=C/c2ccc(-c3ccccc3)cc2)cc1CSCC(=O)O	5.69%	3.11%	13 µM	23.2 µM						
O=C(NC(=S)Nc1ccccc1C(=O)O)c1ccc(-c2ccc(Br)cc2)o1	59.6%	77.9%		> 50 µM						
Cc1cc(Cl)ccc1OC(C)C(=O)Nc1ccc(C(=O)Nc2ccccc2C(=O)O)cc1 (stereo not drawn)	63.6%	49.8%	48.8 µM	> 50 µM						
CSc1nnc(-c2ccccc2N=Cc2c(C)[nH]n(-c3ccc4ccccc4c3)c2=O)c(=O)[nH]1	55.5%	53.7%		> 50 µM						
O=C(O)CN1C(=O)/C(=C\c2cc(Br)ccc2OCc2ccc(Cl)cc2Cl)SC1=S	37.6%	93.8%		25.6 µM	93.8% (inactive)					
O=C(NN1C(=O)/C(=C\c2ccc(O)c([N+](=O)[O-])c2)SC1=S)c1ccccc1Cl	69.9%	62.8%		> 50 µM						
Cc1nn(CCc2nn[nH]n2)c2nc(-c3ccc(C4CCCCC4)cc3)cc(C(F)(F)F)c12	66.9%	42.9%	36.3 µM	> 50 µM						
COc1cc(/C=C2\SC(=O)N(Cc3ccc(Cl)cc3)C2=O)cc([N+](=O)[O-])c1O	72.8%	38.6%	20.8 µM	> 50 µM						
C=CC#CC[N+]1(CC#Cc2ccccc2)CCOCC1	70%	76.2%		> 50 µM						
COc1cc(/C=C2\SC(=O)N(Cc3ccc(F)cc3)C2=O)cc([N+](=O)[O-])c1O	65.7%	41.9%	28.7 µM	> 50 µM						
CC(/C=C1\SC(=S)N(c2ccc(C(=O)O)cc2)C1=O)=C\c1ccccc1	88%				99.7% (inactive)					96.6%
O=C(COc1ccc(Cl)cc1Cl)Nc1ccc(C(=O)Nc2ccccc2C(=O)O)cc1	92.6%	71.9%								
